Where two headings read alike, the source gives them in different places.
Assays:
[1] = Rat peripheral blood indicators during full-thickness skin wound treatment; assay type: in vivo, rats
Procedure: Peripheral blood indicators (leucocytes, leucocyte formula, erythrocyte sedimentation rate) of the rats from the test and control groups were measured before the animals were wounded, and then checked on the fifth, tenth and fifteenth days of the experiment. No reproducible changes compared to the blood characteristics of the intact animals prior to wounding were identified from the haematological indicators of rats treated with Compound 2.

wounds = experiment: Treatment of wounds in human patients; assay type: in vivo
Procedure: The effect of Compound 2 on the healing of different types of wounds was tested in human patients. A powder, solution or ointment of the substance containing the active agent in a proportion of 5% to 95% was applied to the wound. In all cases the wounds healed rapidly without infection or scarring.

[2] = tested on: cryogenic injury of the oral mucosa; experiment: Healing of mouth ulcers caused by cryogenic injury in rats; assay type: in vivo; settings: 50 mg/kg; morphological analysis
Procedure: A model of mouth ulcers using ulcers caused by cryogenic injury of the inner surface of the cheek was used for this purpose. Tests were performed on 110 male rats weighing 180-200 g, with 10 animals in each group. Ulcers were created in experimental animals by pressing a metal rod of 2.5 mm in diameter cooled in liquid nitrogen to the mucosa for 10 seconds under ether anaesthesia. Animals were kept in separate cages, with normal food and water ad libitum. Treatment was administered by spraying of the mucous membrane of the mouth, 24 hours after wounding and then daily until healing was complete. Compound 2 was administered to the animals at a dose of 50 mg/kg (2 ml of aqueous solution). The following groups of animals were used:
The progress of wound healing was examined morphologically on days 1, 3, 7 and 14. On the day 3 the lesions were progressively worse, resulting in the growth of necrotic changes with the formation of a wide necrotic zone at the bottom of the wound, and growth and expansion of acute inflammation involving the muscle, skin and mucosa beyond the wound area. On day 7, the wounds in half of the animals were partially cleared of the necrotic mass, accompanied by the development of granulation tissue at the bottom of the wound and in the adjacent mucosa. […]

[3] = tested on: neurogenic dystrophy of the myocardium; experiment: Myocardial infarction model (electrostimulation of aortic arch), creatine phosphate in rat myocardium; assay type: in vivo, rats
Excerpt: The effect of Compound 2 on myocardial tissue in an experimental model of myocardial infarction was examined. In this model system neurogenic dystrophy of the myocardium was induced in rats or rabbits by electrical stimulation of the reflexogenic zone of the aortic arch by implanted electrodes for a period of three hours. […] These changes are accompanied by changes in biochemical indicators such as creatine phosphate, cAMP, and calcium ion concentrations, and changes in the activity of redox enzymes such as succinate dehydrogenase, lactate dehydrogenase, and glucose-6-phosphate dehydrogenase. At a later stage organic lesions of the myocardium such as necrotic and fibrosclerotic foci can be observed.
The effect of Compound 2 given intraperitoneally or orally on these indicators was examined in rats and rabbits following electrostimulation as described above. The effects on levels of creatine phosphate in rat myocardial are shown in Table 19, and the effects on adenosine triphosphatase (ATPase), succinate dehydrogenase and glucose-6-phosphate dehydrogenase rabbit myocardium are shown in Table 20. The effects on cAMP and Ca^++ levels in rabbit myocardial tissue are shown in FIG. 5, and effects on creatine kinase in rabbit myocardium and blood and the levels of creatine phosphate in myocardium are shown in FIG. 6.

myocardial infarction = experiment: Clinical comparison of Compound 2 and Riboxin in subacute myocardial infarction (Example 25); assay type: in vivo, human
Procedure: A total of 94 patients were examined; of these:
Conventional therapy as for example 24 was given to 30 patients. Each patient continued to receive the treatment which s/he had been given prior to commencement of the trial. Compound 2 was administered in addition to the previous treatment.
All the patients underwent standard laboratory tests prior to commencement of Compound 2 therapy, 14 days after the beginning of the course and upon completion of the course. The tests included clinical blood analysis; general urine analysis; evaluation of creatinine, bilirubin, transaminase activity, blood sugar, cholesterol and β-lipoproteins, malonic dialdehyde, Schiff bases, zinc, iron, copper, plasma potassium and sodium, prothrombin and fibrinogen; and an ECG examination in dynamics.
All the patients received conventional therapy, i.e. nitrates, anticoagulants and/or hypotensive agents as appropriate.
Combination therapy included Compound 2 (1st group—32 patients) or Riboxin (2nd group—18 patients). The agents were administered at a dose of 200 mg three times per day.

[4] = 200 mg three times per day plus conventional therapy
[5] = patients with repeated myocardial infarct

Procedure for white male mice: The acute toxicity of 1,3-dialkyl-4,5-bis (N-methylcarbamoyl)imidazolium salts was assessed following intraperitoneal injection into 200 white male mice weighing 18 to 20 g. Dead animals were counted daily after the administration of the test substance.

CC[n+]1cn(C)c(C(=O)NC)c1C(=O)NC.O=S(=O)([O-])c1ccccc1 [Compound 2, 1-methyl-3-ethyl-4,5-bis(N-methylcarbamoyl)-imidazolium benzenesulfonate]
ESR mm/h ([1]; day 5): 2.2 ± 0.6 mm/h | Leucocyte count (%) Band neutrophils ([1]; day 5): 1.4 ± 0.4% | Leucocyte count (%) Segmented neutrophils ([1]; day 5): 35.2 ± 4.4% | Leucocyte count (%) basophils ([1]; day 5): 0% | Leucocyte count (%) eosinophils ([1]; day 5): 2.6 ± 0.6% | Leucocyte count (%) lymphocytes ([1]; day 5): 52.6 ± 4.5% | Leucocyte count (%) monocytes ([1]; day 5): 8.2 ± 0.8% | Leucocytes 10^9/l ([1]; day 5): 6.6 ± 0.9 10^9/l | ESR mm/h ([1]; day 10): 1.0 ± 0 mm/h | Leucocyte count (%) Band neutrophils ([1]; day 10): 1.2 ± 0.2% | Leucocyte count (%) Segmented neutrophils ([1]; day 10): 29.6 ± 2.2% | Leucocyte count (%) basophils ([1]; day 10): 0.6 ± 0.2% | Leucocyte count (%) eosinophils ([1]; day 10): 2.4 ± 0.5% | Leucocyte count (%) lymphocytes ([1]; day 10): 63.8 ± 1.9% | Leucocyte count (%) monocytes ([1]; day 10): 2.4 ± 0.5% | Leucocytes 10^9/l ([1]; day 10): 7.9 ± 0.6 10^9/l | European Search Report mm/h ([1]; day 15): 1.4 ± 0.2 mm/h | Leucocyte count (%) Band neutrophils ([1]; day 15): 1.2 ± 0.2% | Leucocyte count (%) Segmented neutrophils ([1]; day 15): 21.0 ± 3.1% | Leucocyte count (%) basophils ([1]; day 15): 0.4 ± 0.2% | Leucocyte count (%) eosinophils ([1]; day 15): 2.8 ± 0.2% | Leucocyte count (%) lymphocytes ([1]; day 15): 70.6 ± 3.4% | Leucocyte count (%) monocytes ([1]; day 15): 4.0 ± 0.7% | Leucocytes 10^9/1 ([1]; day 15): 11.1 ± 1.6 10^9/1 | wound outcome (wounds; Patient A, incisional wound 5 cm, 10% ointment in lanolin daily for 5 days, at 17 days): there was no scar, and the skin had fully recovered | wound outcome (wounds; Patient B, bed sores on the thigh, 0.5 g finely dispersed powder daily for 5 days, at 16 days): there was no scar, and the skin had fully recovered | wound outcome (wounds; Patient C, second degree thermal burn, 10% sterile aqueous solution, at 16 days): complete recovery of the skin, without scars | wound outcome (wounds; Patient D, abrasion of the left leg, 0.5 g powder mixed with equal amount of talc, at 12 days): the skin had healed completely | wound outcome (wounds; Patient E, erosion of the uterine cervix, 10% ointment on a tampon daily for two weeks, colposcopy at 18 days): the epithelium of the mucous membrane of the uterine cervix had fully recovered | healing of cryogenic injury of the oral mucosa compared to untreated controls [2]: more pronounced, earlier and more complete healing | Level of creatine phosphate (μM/g) in rat myocardium ([3]; Oral 10 mg/kg, 3 days after stimulation): 1.09 ± 0.1 µM/g | Level of creatine phosphate (μM/g) in rat myocardium ([3]; Oral 10 mg/kg, Before stimulation): 0.80 ± 0.07 µM/g | Level of creatine phosphate (μM/g) in rat myocardium ([3]; intraperitoneal 10 mg/kg, 3 days after stimulation): 0.95 ± 0.06 µM/g | Level of creatine phosphate (μM/g) in rat myocardium ([3]; intraperitoneal 10 mg/kg, Before stimulation): 0.92 ± 0.08 µM/g | Level of creatine phosphate (μM/g) in rat myocardium ([3]; intraperitoneal 20 mg/kg, 3 days after stimulation): 1.07 ± 0.04 µM/g | Level of creatine phosphate (μM/g) in rat myocardium ([3]; intraperitoneal 20 mg/kg, Before stimulation): 1.04 ± 0.15 µM/g | cholesterol levels (myocardial infarction; [4]): 96.5% | level of prothrombin (myocardial infarction; [4]): 91.3% | ejection fraction (myocardial infarction; 200 mg three times per day plus conventional therapy, 54.4±1.5% in the absence of the agent): 60.0±0.5% | malonic dialdehyde (myocardial infarction; 21st day, 1.3 before treatment, normal 1.21): 1 nmol/mL | superoxide dismutase levels (myocardial infarction; after therapy, 18-20 before treatment, norm 23): 25 conventional units | level of Schiff bases (myocardial infarction; after therapy, 75 before treatment, normal 60): 40 conventional units | allergic reactions or side effects (myocardial infarction; human, in vivo): did not develop any allergic reactions or side effects | cases in which cicatrisation took place one or two days earlier (myocardial infarction; [5]): 90% | time of cicatrisation on the average (myocardial infarction; [5]): 27 days | LD50 (white male mice; intraperitoneal injection, white male mice, 14 days observation): 764 mg/kg | LD50 (white male mice; mice, given intraperitoneally, text b404): 1920 mg/kg

From patent publication US20060135587A1, “Method and compounds for promoting healing and reducing inflammation” (priority 2002, published 2006)
